{
  "source": "patent US6461844B1",
  "about": "“Liver GalNAc-1-phosphate kinase” (The Board of Trustees of the University of Arkansas, priority 1995, dated 2002)",
  "key": {"[1]": {"system": "UDP-GlcNAc pyrophosphorylases", "settings": "UDP-GlcNAc = 100%; cited from earlier work"}, "[2]": {"system": "UDP-GlcNAc pyrophosphorylase", "settings": "partially purified enzyme; cited from earlier work"}, "[3]": {"molecular_target": "T1, GalNAc kinase (Sus scrofa, UniProt A0A287BB25)", "T1 construct": "This enzyme was purified about 1400-fold from the cytosolic fraction of pig kidney; from tissue; host or cells: pig kidney cytosol", "assay": "Azido-ATP[32P] photoaffinity labeling of the purified kinase", "type": "binding, pig", "settings": "unlabeled nucleotide added", "protocol": "The proteins were transferred to nitrocellulose membranes and exposed to film to detect the radioactive bands.\nThe purified enzyme fraction was incubated with azido-ATP[^32P], exposed to UV light and run on SDS gels. […] The product of the reaction was characterized as GalNAc-α-1-P by susceptibility of the phosphate group to mild acid hydrolysis, by its mobility on TLC and Dionex chromatography, and by high resolution NMR.\nThe GalNAc kinase was purified from the cytosolic fraction of pig kidney using the purification scheme described in the section above and outlined in Table I. Using this procedure, the kinase was purified about 1400-fold from crude extracts with a recovery of about 24%. […] In addition, the amount of label in that band increased with increasing amounts of the probe, and the labeling was inhibited by adding unlabeled ATP, but not by other nucleotides. […] Moreover, gel filtration of the native enzyme on Sephadex G-100 gave an activity peak in the region where proteins of about 48-51 kDa elute. Thus the native protein is probably a monomer of about 50 kDa molecular weight. Sufficient amounts of this protein band can be prepared to determine the amino acid sequence and to prepare antibodies."}, "[4]": {"molecular_target": "T1, GalNAc kinase", "assay": "Effect of substrate concentration on GalNAc kinase activity (Km)", "type": "biochemical, pig", "settings": "300 μM GalNAc; Lineweaver-Burk; read-out: Km for ATP", "protocol": "(§1) In FIG. 3A, various amounts of GalNAc were added to otherwise standard incubation mixtures containing 300 μM ATP, and the amount of GalNAc phosphorylated by the purified enzyme was determined. In FIG. 3B, the data was replotted by the method of Lineweaver and Burk. In FIG. 3C, various amounts of the other substrate, ATP, were added to otherwise standard incubation mixtures containing saturating (300 μM) levels of GalNAc and the amount of phosphorylation of GalNAc by the purified enzyme was determined.\n(§2) GalNAc kinase activity was assayed in incubation mixtures of 200 μl containing the following components: [^3H]GalNAc (10,000 cpm), 1 μmole of ATP, 2 μmoles of MgCl2, 20 μmoles of Tris-HCl buffer, pH 7.5, and various amounts of the enzyme preparations to be assayed. Following an incubation for the appropriate time, the reaction was stopped by heating at 100° C. for 5 min., and the incubation mixture was applied to a column of DE-52. The column was washed with at least 5 column volumes of 10 mM (NH4)HCO3 buffer to remove unbound material, and then GalNAc phosphate was eluted with 500 mM ammonium bicarbonate. Aliquots of the wash and eluent were removed and assayed for their radioactive content by scintillation counting."}, "[5]": {"molecular_target": "T1, GalNAc kinase", "assay": "Phosphate donor specificity of GalNAc kinase", "type": "biochemical, pig", "design": "Radioactivity in Sugar-P: unit not given beside the values"}, "[6]": {"assay": "Acid lability of the phosphate group of sugar phosphates", "type": "physicochemical", "settings": "0.05 N HCl, 100° C., up to 50 minutes", "protocol": "A large amount of the radioactive product formed by the GalNAc kinase was isolated and purified on a DE-52 column, and this product was suspended in 0.05 N HCl and placed in a hot water bath at about 95° C. At various times, aliquots of the reaction mixture were removed, cooled, neutralized and passed through a column of DE-52 to determine whether the ^3H-GalNAc had lost its charge. Standards of Glc-6-P, Glc-1-P, GalNAc-1-P and GlcNAc-6-P were also subjected to the same hydrolysis conditions and were tested for their susceptibility to loss of phosphate.\nThe radioactive material was examined for purity and characterization by TLC chromatography on cellulose plates in 70% ethanol: 1 M ammonium acetate, pH 7.5 (7:3), or in 70% ethanol: 1 M ammonium acetate, pH 3.5 (7:3). The product was subjected to HPLC on the Dionex apparatus, using a column to separate various sugar phosphates from each other. Sugar-1-phosphates were distinguished from sugar-6-phosphates by their susceptibility to acid hydrolysis in 0.05 N HCl at 100° C. Sugar-1-phosphates are rapidly hydrolyzed whereas sugar-6-phosphates are stable. […]\nThe radioactive product from the ion exchange columns was suspended in 0.05 N HCl and heated at 100° C. for various periods of time. […] The amount of radioactivity that emerged in the wash was taken as a measure of removal of the phosphate group. […]"}, "[7]": {"substrate": "CC(=O)N[C@H]1C(O)O[C@H](CO)[C@H](O)[C@@H]1O", "assay": "Effect of substrate concentration on GalNAc kinase activity (Km)", "type": "biochemical, pig", "settings": "other: 300 μM ATP; Lineweaver-Burk; pH 7.5", "protocol": "as §1, §2"}},
  "data": [
    {"molecule": "CC(=O)N[C@H]1[C@@H](OP(=O)(O)OP(=O)(O)OC[C@H]2O[C@@H](n3ccc(=O)[nH]c3=O)[C@H](O)[C@@H]2O)O[C@H](CO)[C@H](O)[C@@H]1O", "note": "[UDP-GalNAc]", "values": [
      {"measurement": "activity towards substrate", "setting": "[1]", "result": 3, "unit": "%"},
      {"measurement": "rate of pyrophosphorolysis relative to UDP-GlcNAc", "setting": "[2]", "result": "about 2.8%"}
    ]},
    {"molecule": "Nc1ncnc2c1ncn2[C@@H]1O[C@H](COP(=O)(O)OP(=O)(O)OP(=O)(O)O)[C@@H](O)[C@H]1O", "note": "[ATP]", "values": [
      {"measurement": "effect on labeling of the 50 kDa band by ATP[32P] photoaffinity probe", "setting": "[3]", "result": "inhibited"},
      {"measurement": "Km", "setting": "[4]", "result": 100, "unit": "µM"},
      {"measurement": "activity as phosphate donor", "setting": "[5]", "result": "by far the best phosphate donor"},
      {"measurement": "Radioactivity in Sugar-P", "setting": "[5]; nucleotide added at 5 mM", "result": "10,195"},
      {"measurement": "Specific Activity", "setting": "[5]; nucleotide added at 5 mM", "result": 160.0, "unit": "nmol/mg"}
    ]},
    {"molecule": "CC(=O)N[C@H]1[C@@H](OP(=O)(O)OP(=O)(O)OC[C@H]2O[C@@H](n3ccc(=O)[nH]c3=O)[C@H](O)[C@@H]2O)O[C@H](CO)[C@@H](O)[C@@H]1O", "note": "[UDP-GlcNAc]", "values": [
      {"measurement": "activity towards substrate", "setting": "[1]", "result": 100, "unit": "%"}
    ]},
    {"molecule": "CC(=O)N[C@@H]1C(O)[C@H](O)[C@@H](COP(=O)(O)O)O[C@H]1O", "note": "(stereo partly shown) [GlcNAc-6-phosphate]", "values": [
      {"measurement": "stability to acid hydrolysis", "setting": "[6]", "result": "quite stable"}
    ]},
    {"molecule": "GalNAc kinase (Sus scrofa) (protein, This enzyme was purified about 1400-fold from the cytosolic fraction of pig kidney; from tissue; host or cells: pig kidney cytosol) MATEGPPVHQVQVAEHPRLLKLKEIFNSKFGSIPKFYVRAPGRVNIIGEHIDYCGYSVLPMAVEQDMLIAVEPVKTHTLQLANTNPLYPDFNTSADNIQIDKTKPLWHNYFLCGFKGIQEHFGLSNLIGMNCLVDGNIPPSSGLSSSSALVCCAGLVTLTVLGMNLSKVELAEICAKSERYIGTEGGGMDQSISFLAEEGTAKLIEFSPLRATDVKLPSGAVFVIANSCVEMNKAATSHFNIRVMECRLAAKLLAKHRSLQWDKVLRLEEVQAKLGVSLEEMLLITEDTLHPEPYSPEEVCQCLGISLQELKTQILSPNTQDVLTFKLYQRAKHVYSEAARVLQFKKICEEAPDDMVQLLGELMNQSHVSCRDMYECSCPELDQLVDICRKFGAQGSRLTGAGWGGCTVSIVLADKLPSFLANVHEAYYQKSGRSLAPEKQSLFATKPGGGALVFLEA", "values": [
      {"measurement": "Km", "setting": "[7]", "result": 50, "unit": "µM"}
    ]}
  ]
}
